Test results as given in BigSolDB 2.1.

CCCCCOC(=O)Nc1nc(=O)n([C@@H]2O[C@H](C)[C@@H](O)[C@H]2O)cc1F
Settings | solubility (mole fraction)
in 2-ethylhexanol, 278.02 K | 0.0011
in 2-ethylhexanol, 282.93 K | 0.0013
in 2-ethylhexanol, 287.88 K | 0.0019
in 2-ethylhexanol, 292.57 K | 0.0027
in 2-ethylhexanol, 297.38 K | 0.0036
in 2-ethylhexanol, 302.24 K | 0.005
in 2-ethylhexanol, 307.13 K | 0.0069
in 2-ethylhexanol, 312.04 K | 0.0096
in 2-ethylhexanol, 316.73 K | 0.0125
in 2-ethylhexanol, 321.76 K | 0.0173
in 2-octanol, 278.04 K | 0.001
in 2-octanol, 282.95 K | 0.0014
in 2-octanol, 287.9 K | 0.0018
in 2-octanol, 292.55 K | 0.0025
in 2-octanol, 298.45 K | 0.0036
in 2-octanol, 302.3 K | 0.0047
in 2-octanol, 307.15 K | 0.0064
in 2-octanol, 312.05 K | 0.0087
in 2-octanol, 317.75 K | 0.0116
in 2-octanol, 322.2 K | 0.0151
in ethanol, 278.25 K | 0.0099
in ethanol, 282.86 K | 0.0123
in ethanol, 287.85 K | 0.017
in ethanol, 292.84 K | 0.0247
in ethanol, 297.75 K | 0.0353
in ethanol, 302.55 K | 0.048
in ethanol, 307.25 K | 0.0676
in ethanol, 312.14 K | 0.0933
in ethanol, 317.35 K | 0.127
in ethanol, 322.13 K | 0.166
in ethylene glycol, 278.65 K | 0.01
in ethylene glycol, 283.15 K | 0.0125
in ethylene glycol, 287.95 K | 0.017
in ethylene glycol, 293 K | 0.021
in ethylene glycol, 297.95 K | 0.0267
in ethylene glycol, 302.95 K | 0.0348
in ethylene glycol, 307.65 K | 0.0437
in ethylene glycol, 312.1 K | 0.0539
in ethylene glycol, 316.85 K | 0.0661
in ethylene glycol, 322.25 K | 0.0877
in isobutanol, 278.26 K | 0.0012
in isobutanol, 283.15 K | 0.0018
in isobutanol, 288.1 K | 0.0029
in isobutanol, 293.38 K | 0.0046
in isobutanol, 298.02 K | 0.007
in isobutanol, 302.85 K | 0.0107
in isobutanol, 307.4 K | 0.0156
in isobutanol, 312.25 K | 0.0232
in isobutanol, 316.95 K | 0.0336
in isobutanol, 321.95 K | 0.0492
in isopentanol, 278.25 K | 0.0027
in isopentanol, 282.97 K | 0.0038
in isopentanol, 288.76 K | 0.0057
in isopentanol, 292.64 K | 0.0074
in isopentanol, 297.33 K | 0.0102
in isopentanol, 302.27 K | 0.0141
in isopentanol, 307.06 K | 0.0193
in isopentanol, 312.04 K | 0.0267
in isopentanol, 316.78 K | 0.0361
in isopentanol, 321.47 K | 0.0485
in isopropanol, 277.98 K | 0.0011
in isopropanol, 283.49 K | 0.0016
in isopropanol, 288.07 K | 0.0024
in isopropanol, 293.16 K | 0.0037
in isopropanol, 297.34 K | 0.0053
in isopropanol, 302.29 K | 0.0079
in isopropanol, 307.07 K | 0.0115
in isopropanol, 312.14 K | 0.017
in isopropanol, 316.88 K | 0.0241
in isopropanol, 321.47 K | 0.034
in n-butanol, 278.1 K | 0.0021
in n-butanol, 283.03 K | 0.003
in n-butanol, 288.02 K | 0.0045
in n-butanol, 293.53 K | 0.007
in n-butanol, 298 K | 0.0106
in n-butanol, 303.15 K | 0.016
in n-butanol, 308.25 K | 0.0239
in n-butanol, 312.35 K | 0.0351
in n-butanol, 317.4 K | 0.051
in n-butanol, 322.49 K | 0.077
in n-heptanol, 278 K | 0.0018
in n-heptanol, 283.15 K | 0.0025
in n-heptanol, 288.33 K | 0.0036
in n-heptanol, 292.53 K | 0.0047
in n-heptanol, 297.63 K | 0.0065
in n-heptanol, 303.3 K | 0.0092
in n-heptanol, 308.35 K | 0.0126
in n-heptanol, 313.25 K | 0.017
in n-heptanol, 318.05 K | 0.0226
in n-heptanol, 322.85 K | 0.0299
in n-hexanol, 278.1 K | 0.0018
in n-hexanol, 284.33 K | 0.0029
in n-hexanol, 287.97 K | 0.0038
in n-hexanol, 293.85 K | 0.006
in n-hexanol, 297.6 K | 0.008
in n-hexanol, 303.55 K | 0.0125
in n-hexanol, 308.55 K | 0.0173
in n-hexanol, 313.15 K | 0.0241
in n-hexanol, 317.75 K | 0.0333
in n-hexanol, 322.25 K | 0.0461
in n-octanol, 278.65 K | 0.0022
in n-octanol, 283 K | 0.003
in n-octanol, 287.98 K | 0.004
in n-octanol, 292.95 K | 0.0055
in n-octanol, 298.35 K | 0.0076
in n-octanol, 302.94 K | 0.01
in n-octanol, 307.5 K | 0.0131
in n-octanol, 312.35 K | 0.0173
in n-octanol, 317.05 K | 0.0226
in n-octanol, 322.05 K | 0.0307
in n-pentanol, 278.2 K | 0.002
in n-pentanol, 282.97 K | 0.0031
in n-pentanol, 288.26 K | 0.0051
in n-pentanol, 292.64 K | 0.0071
in n-pentanol, 297.33 K | 0.0101
in n-pentanol, 302.27 K | 0.0146
in n-pentanol, 307.06 K | 0.0205
in n-pentanol, 312.04 K | 0.0292
in n-pentanol, 316.78 K | 0.0404
in n-pentanol, 321.47 K | 0.0555
in n-propanol, 278 K | 0.0024
in n-propanol, 283.06 K | 0.0037
in n-propanol, 287.98 K | 0.0055
in n-propanol, 292.87 K | 0.0088
in n-propanol, 297.33 K | 0.0132
in n-propanol, 302.29 K | 0.0205
in n-propanol, 307.07 K | 0.0309
in n-propanol, 312.14 K | 0.0471
in n-propanol, 316.88 K | 0.0687
in n-propanol, 321.47 K | 0.0997
in sec-butanol, 278.15 K | 0.001
in sec-butanol, 283.17 K | 0.0016
in sec-butanol, 288.13 K | 0.0026
in sec-butanol, 293.35 K | 0.0043
in sec-butanol, 298.44 K | 0.0065
in sec-butanol, 302.9 K | 0.0093
in sec-butanol, 307.65 K | 0.014
in sec-butanol, 312.44 K | 0.0207
in sec-butanol, 317.25 K | 0.0301
in sec-butanol, 321.9 K | 0.0428
in tert-butanol, 299.65 K | 0.0078
in tert-butanol, 302.75 K | 0.0096
in tert-butanol, 307.43 K | 0.0139
in tert-butanol, 312.2 K | 0.0199
in tert-butanol, 317.04 K | 0.0294
in tert-butanol, 321.65 K | 0.0423
in water, 278.25 K | 0.0009
in water, 283.2 K | 0.001
in water, 288.3 K | 0.001
in water, 293.25 K | 0.0011
in water, 298.25 K | 0.0012
in water, 302.8 K | 0.0013
in water, 308 K | 0.0014
in water, 312.95 K | 0.0015
in water, 317.65 K | 0.0016
in water, 322.75 K | 0.0017
